# Experimental data as given in patent publication US20110124608A1, “USE OF 25-HYDROXY VITAMIN D3 TO INCREASE MUSCLE MASS IN MAMMALS” (priority 2007, published 2011).
# Tests used:
# Assay type in all cases: in vivo, pig
# pigs [1] = test: Swine growth performance, Study A: pigs fed 25-OH D3 and farrowed to sows fed 25-OH D3
# Excerpt: (§1) Study A. Two treatment groups were used in all studies. The control group contained first-to-fifth parity pigs (sows and progenies) fed rations without 25-OH D3 supplementation. The experimental group was made up of first-to-fifth parity pigs fed rations supplemented with 50 mcg 25-OH D3/kg diet) and farrowed to sows fed rations supplemented with 25-OH D3 since 6 months old. Study A only covered the pre-starter to finisher stage (41-150 days old) for the first to third parities pigs, while it covered the booster to finisher stage (7-150 days old) for the fourth and fifth parity pigs. Study B. Two treatment groups were also used in this study. Pigs were randomly selected from mixed-parity sows fed rations containing no supplemental 25-OH on the same farm. The control group was fed rations without 25-OH D3, whereas the experimental group was fed rations supplemented with 25-OH D3 (50 mcg 25-OH D3/kg diet). Study B covered the pre-starter to finisher stage (41-150 days old). Number of pigs and replicates: There were 8-11 replicates per treatment and 4 pigs per replicate. Randomization and Allotment of pigs: Pigs were grouped according to size and sex and randomly allocated to each treatment. The number of male-replicates for the two treatments were equalized. Rations: The rations involved in all studies were gestating and lactation rations for the sows. Booster, pre-starter, starter, grower and finisher rations were given to the progenies. Feeding: The experimental pigs were fed ad libitum with dry feeds. Booster pigs (sucklings) were fed starting when they were 7 days old. Feeds were placed in a linear trough designed for piglets. For a few days, only a small amount of feed was given to the pigs, but when they were eating, the required amount was always in the feeder. The amounts of feeds were properly weighed and recorded. Pre-starter pigs were fed for 30 days using linear feeders while they were confined in slatted and elevated nursery pens. The grower-finisher pigs were fed using concrete linear feeders for 80 days while they were confined in pens with cement flooring. The following rations were fed to pigs corresponding to their age.
# (§2) Other management Practices: All experimental animals were subject to the standard operating procedure in the farm where these studies were conducted. Data Collection The following data were collected: 1. Weights of piglets at 7 days old 2. Weight of piglets at 28 days old 3. Weight of pigs at 41, 70, 100, 130, and 150 days old 4. Feed consumption during the following periods:
# Across parities, pigs weaned from 25-OH D3—fed sows were fed 50 μg 25-OH D3/kg diet and those weaned from control sows were fed the control diet (containing no 25-OH D3). Consistently across the three parities, pigs fed 25-OH D3 gained weight faster (a delta average of 3.9 kg) an converted feed to gain (a delta average of 7 points) more efficient than those fed the control diet.
# pigs [2] = test: Swine growth performance, Study B / Example 2: pigs fed 25-OH D3, farrowed to sows fed without 25-OH D3
# Excerpt: as §1, §2
# In this study, the pigs that were used were weaned from sows that were not fed 25-OH D3.
# pigs [3] = test: Farm records: pigs weaned from 25-OH D3-fed sows but not fed 25-OH D3; settings: pigs weaned from 25-OH D3-fed sows but not fed 25-OH D3 (prenatal exposure only)
# [4] = across parities, prestarting-to-finishing pigs from 25-OH D3-fed sows, 50 μg 25-OH D3/kg diet
# [5] = fifth parity pigs, 41-150-day old, sows fed 25-OH D3, 50 mcg 25-OH D3/kg diet
# [6] = fifth parity pigs, 41-150-day old, sows fed 25-OH D3, difference to control
# [7] = first parity pigs, 41-to-150-day-old, sows fed 25-OH D3, 50 mcg 25-OH D3/kg diet
# [8] = first parity pigs, 41-to-150-day-old, sows fed 25-OH D3, difference to control
# [9] = fourth parity pigs, 41-150-old, sows fed 25-OH D3, 50 mcg 25-OH D3/kg diet
# [10] = fourth parity pigs, 41-150-old, sows fed 25-OH D3, difference to control
# [11] = second parity pigs, 41-to-150-day-old, sows fed 25-OH D3, 50 mcg 25-OH D3/kg diet
# [12] = second parity pigs, 41-to-150-day-old, sows fed 25-OH D3, difference to control
# [13] = third parity pigs, 41-150-day-old, sows fed 25-OH D3, 50 mcg 25-OH D3/kg diet
# [14] = third parity pigs, 41-150-day-old, sows fed 25-OH D3, difference to control
# [15] = mixed-parity pigs, 41-to-150-day old, sows fed without 25-OH D3, 50 mcg 25-OH D3/kg diet
# [16] = mixed-parity pigs, 41-to-150-day old, sows fed without 25-OH D3, difference to control
structure (smiles),measurement,setting,value
"C=C1CC[C@H](O)C/C1=C/C=C1\CCC[C@]2(C)[C@@H]([C@H](C)CCCC(C)(C)O)CC[C@@H]12 [25-OH D3, 25-hydroxy vitamin D3]","feed to gain conversion, delta average v. control diet",pigs [1]; [4],7 points
same,"weight gain, delta average v. control diet",pigs [1]; [4],3.9 kg
same,Daily wt gain,pigs [1]; [5],0.76 kg
same,Feed: Gain,pigs [1]; [5],2.22
same,Final body wt,pigs [1]; [5],91.94 kg
same,Initial Body wt,pigs [1]; [5],8.66 kg
same,Total feed intake,pigs [1]; [5],184.63 kg
same,Total wt gain,pigs [1]; [5],83.27 kg
same,"Daily wt gain, 25-OH D3 v. control (δ)",pigs [1]; [6],0.03 kg
same,"Feed: Gain, 25-OH D3 v. control (δ)",pigs [1]; [6],0.00
same,"Final body wt, 25-OH D3 v. control (δ)",pigs [1]; [6],2.51 kg
same,"Initial Body wt, 25-OH D3 v. control (δ)",pigs [1]; [6],-0.07 kg
same,"Total feed intake, 25-OH D3 v. control (δ)",pigs [1]; [6],5.04 kg
same,"Total wt gain, 25-OH D3 v. control (δ)",pigs [1]; [6],2.57 kg
same,Daily wt gain,pigs [1]; [7],0.72 kg
same,Feed: Gain,pigs [1]; [7],2.32
same,Final body wt,pigs [1]; [7],87.78 kg
same,Initial Body wt,pigs [1]; [7],8.24 kg
same,Total feed intake,pigs [1]; [7],184.60 kg
same,Total wt gain,pigs [1]; [7],79.55 kg
same,"Daily wt gain, 25-OH D3 v. control (δ)",pigs [1]; [8],0.04 kg
same,"Feed: Gain, 25-OH D3 v. control (δ)",pigs [1]; [8],−0.15
same,"Final body wt, 25-OH D3 v. control (δ)",pigs [1]; [8],5.72 kg
same,"Initial Body wt, 25-OH D3 v. control (δ)",pigs [1]; [8],0.64 kg
same,"Total feed intake, 25-OH D3 v. control (δ)",pigs [1]; [8],0.86 kg
same,"Total wt gain, 25-OH D3 v. control (δ)",pigs [1]; [8],5.08 kg
same,Daily wt gain,pigs [1]; [9],0.74 kg
same,Feed: Gain,pigs [1]; [9],2.07
same,Final body wt,pigs [1]; [9],89.57 kg
same,Initial Body wt,pigs [1]; [9],8.43 kg
same,Total feed intake,pigs [1]; [9],166.93 kg
same,Total weight gain,pigs [1]; [9],81.15 kg
same,"Daily wt gain, 25-OH D3 v. control (δ)",pigs [1]; [10],0.01 kg
same,"Feed: Gain, 25-OH D3 v. control (δ)",pigs [1]; [10],−0.05
same,"Final body wt, 25-OH D3 v. control (δ)",pigs [1]; [10],1.21 kg
same,"Initial Body wt, 25-OH D3 v. control (δ)",pigs [1]; [10],0.15 kg
same,"Total feed intake, 25-OH D3 v. control (δ)",pigs [1]; [10],-1.86 kg
same,"Total weight gain, 25-OH D3 v. control (δ)",pigs [1]; [10],1.06 kg
same,Daily wt gain,pigs [1]; [11],0.78 kg
same,Feed: Gain,pigs [1]; [11],2.28
same,Final body wt,pigs [1]; [11],95.78 kg
same,Initial Body wt,pigs [1]; [11],10.56 kg
same,Total feed intake,pigs [1]; [11],193.74 kg
same,Total wt gain,pigs [1]; [11],85.22 kg
same,"Daily wt gain, 25-OH D3 v. control (δ)",pigs [1]; [12],0.06 kg
same,"Feed: Gain, 25-OH D3 v. control (δ)",pigs [1]; [12],−0.04
same,"Final body wt, 25-OH D3 v. control (δ)",pigs [1]; [12],7.34 kg
same,"Initial Body wt, 25-OH D3 v. control (δ)",pigs [1]; [12],1.67 kg
same,"Total feed intake, 25-OH D3 v. control (δ)",pigs [1]; [12],9.25 kg
same,"Total wt gain, 25-OH D3 v. control (δ)",pigs [1]; [12],5.59 kg
same,Daily weight gain,pigs [1]; [13],0.76 kg
same,Feed: Gain,pigs [1]; [13],2.16
same,Final body wt,pigs [1]; [13],92.39 kg
same,Initial Body wt,pigs [1]; [13],8.88 kg
same,Total feed intake,pigs [1]; [13],179.35 kg
same,Total wt gain,pigs [1]; [13],83.51 kg
same,"Daily weight gain, 25-OH D3 v. control (δ)",pigs [1]; [14],0.05 kg
same,"Feed: Gain, 25-OH D3 v. control (δ)",pigs [1]; [14],−0.13
same,"Final body wt, 25-OH D3 v. control (δ)",pigs [1]; [14],5.88 kg
same,"Initial Body wt, 25-OH D3 v. control (δ)",pigs [1]; [14],0.75 kg
same,"Total feed intake, 25-OH D3 v. control (δ)",pigs [1]; [14],0.52 kg
same,"Total wt gain, 25-OH D3 v. control (δ)",pigs [1]; [14],5.12 kg
same,Daily wt gain,pigs [2]; [15],0.74 kg
same,Feed: Gain,pigs [2]; [15],2.34
same,Final body wt,pigs [2]; [15],89.59 kg
same,Initial Body wt,pigs [2]; [15],8.44 kg
same,Total feed intake,pigs [2]; [15],190.05 kg
same,Total wt gain,pigs [2]; [15],81.15 kg
same,"Daily wt gain, 25-OH D3 v. control (δ)",pigs [2]; [16],0.01 kg
same,"Feed: Gain, 25-OH D3 v. control (δ)",pigs [2]; [16],−0.06
same,"Final body wt, 25-OH D3 v. control (δ)",pigs [2]; [16],0.98 kg
same,"Initial Body wt, 25-OH D3 v. control (δ)",pigs [2]; [16],0.11 kg
same,"Total feed intake, 25-OH D3 v. control (δ)",pigs [2]; [16],-0.89 kg
same,"Total wt gain, 25-OH D3 v. control (δ)",pigs [2]; [16],0.88 kg
same,conversion of feed to weight gain compared with pigs fed without 25-OH D3,pigs [2]; pigs weaned from sows not fed 25-OH D3,more efficiently
same,weight gain compared with pigs fed 25-OH D3 (Table 1),pigs [3],gain weight slower
same,body weight average,"pigs [3]; farm records, n=23 pigs",80.90 kg
